Results as given in EPA's ToxValDB 9.5 (doi:10.2903/j.efsa.2013.3235).
“And” between values parts separate entries of the source, which are not always exact repeats. Identical values can stand only once.

Assays:
Canidae = conditions: reproduction developmental; duration: 1 years; Dog Other
Rattus norvegicus = conditions: for LD50: acute, mortality
Anas platyrhynchos = conditions: short-term; oral; feed
Coturnix japonica = conditions: acute; oral; mortality
Mus musculus = conditions: acute; oral; mortality

| SMILES | NOEL (Canidae) [mg/kg-day] | NOEL (Rattus norvegicus; chronic) [mg/kg-day] | LD50 (Colinus virginianus; acute, oral, mortality) [mg/kg] | NOEL (Colinus virginianus; reproduction developmental) | NOEL (Colinus virginianus; short-term, oral, diet) | NOEL (Anas platyrhynchos) | LD50 (Coturnix japonica) [mg/kg] | LD50 (Rattus norvegicus; F) [mg/kg] | LD50 (Rattus norvegicus; M) [mg/kg] | LD50 (Rattus norvegicus) | LD50 (Rattus norvegicus; oral) [mg/kg] | LC50 (Colinus virginianus; acute, oral, diet, mortality) [mg/kg-day] | LD50 (Mus musculus) [mg/kg] |
| --- | --- | --- | --- | --- | --- | --- | --- | --- | --- | --- | --- | --- | --- |
| O=C([O-])[C@H](O)[C@@H](O)[C@H](O)[C@H](O)CO.O=C([O-])[C@H](O)[C@@H](O)[C@H](O)[C@H](O)CO.[Cu+2] [Copper gluconate] | 15 | 27 | – | – | – | – | – | – | – | – | – | – | – |
| O.O.[Cu] [Copper hydroxide (Cu(OH)2)] | – | – | 223 | 5.05 mg/kg-day and 5.12 mg/kg-day | 124 mg/kg-day and 135 mg/kg-day | 216 mg/kg-day and 191 mg/kg-day | 556 | 679 | 736 | 439 mg/kg and 281 mg/kg | – | – | – |
| [Cu+].[Cu+].[O-2] [Cuprous oxide] | – | – | – | – | 31.9 mg/kg-day | – | 1180 | – | – | – | 261 | – | – |
| [Cl-].[Cu+2].[Cu+2].[OH-].[OH-].[OH-] [Dicopper chloride trihydroxide] | – | – | 511 | – | – | – | – | 548 | 693 | 1080 mg/kg and 807 mg/kg | – | 333 | 171 |
